The target of assay [1] is recombinant human AChE (Homo sapiens, UniProt P22303). Put plainly: Reversible inhibition of AChE, Ellman method, enzyme-inhibitor dissociation constants. It is filed as biochemical. The note with it: ± standard error; ATCh substrate, 25 °C, pH 7.4. The procedure: (§1) As a source of BChE, a purified human BChE, and as AChE, a recombinant human AChE was used, both enzymes kindly provided by Dr. F. Nachon (Département de Toxicologie, Armed Forces Biomedical Research Institute, France). The concentrated stocks of enzymes (BChE: 5.6 µM; AChE: 0.20 µM) were diluted in a phosphate sodium buffer 0.1 M (pH 7.4) containing 0.1% BSA before starting the experiments.
recombinant human AChE, sequence (P22303 32-614): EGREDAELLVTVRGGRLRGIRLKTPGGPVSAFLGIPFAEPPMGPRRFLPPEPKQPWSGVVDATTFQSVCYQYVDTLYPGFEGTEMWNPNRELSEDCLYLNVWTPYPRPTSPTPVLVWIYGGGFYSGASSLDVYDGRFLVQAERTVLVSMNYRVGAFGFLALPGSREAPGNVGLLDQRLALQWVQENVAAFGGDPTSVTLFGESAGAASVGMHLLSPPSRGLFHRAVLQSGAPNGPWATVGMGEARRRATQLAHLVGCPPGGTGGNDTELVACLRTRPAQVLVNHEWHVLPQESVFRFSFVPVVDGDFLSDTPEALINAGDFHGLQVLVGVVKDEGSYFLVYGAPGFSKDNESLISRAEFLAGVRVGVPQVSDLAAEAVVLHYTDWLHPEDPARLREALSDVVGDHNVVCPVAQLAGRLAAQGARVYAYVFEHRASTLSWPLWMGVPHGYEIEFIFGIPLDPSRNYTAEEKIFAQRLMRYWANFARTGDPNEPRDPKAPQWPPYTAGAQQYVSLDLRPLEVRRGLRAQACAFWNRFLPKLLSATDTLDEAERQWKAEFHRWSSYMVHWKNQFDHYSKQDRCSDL
(§2) Enzyme activities were measured spectrophotometrically by the Ellman method at […] using 0.30 mM DTNB as thiol reagent, ATCh as substrate and water in 0.1 M phosphate buffer, pH 7.4. For the inhibition measurements, the reaction mixture contained tested compounds instead of water. […] Measurements were done at 25 °C on a Tecan Infinite M200Pro plate reader (Austria). A detailed description of measurement protocol was described previously.
(§3) The reversible inhibition of BChE and AChE by tested compounds was measured by determining the decrease of enzyme activity towards ATCh in their presence. The activities of the enzymes were measured at different substrate concentrations ([S]; 0.050–0.50 mM) in the absence (v0) and presence (vi) of the given tested compounds concentration ([I]; 0.050–200 µM, depending on the compound) selected to inhibit the enzymes for 20–80%. At least three concentrations of inhibitors for each substrate concentration were used in at least three experiments. The apparent dissociation inhibition constant (Ki,app) was calculated applying the Hunter-Downs equation and linear regression analysis (1):(1) Ki,app=vi/v0−vi⋅I=KI+KI/KS⋅S where y-intercept determines the enzyme-inhibitor dissociation constants (K(I)), while x-intercept determines the enzyme-substrate dissociation constant, K(S). The determination of kinetic constants was carried out using the GraphPadPrism 6.0 program (GraphPad Software, San Diego, CA, USA).

For assay [2], the target named is purified human BChE (Homo sapiens, UniProt P06276). As to the kind of experiment: Reversible inhibition of BChE, Ellman method, enzyme-inhibitor dissociation constants. It is filed as biochemical. The note with it: for SI, selective index Ki(AChE)/Ki(BChE): times higher preference for BChE over AChE. The protocol:
as §1, §2, §3

Setting [3] is: ± standard error, ATCh substrate, 25 °C, pH 7.4.

purified human BChE, sequence (P06276 29-602): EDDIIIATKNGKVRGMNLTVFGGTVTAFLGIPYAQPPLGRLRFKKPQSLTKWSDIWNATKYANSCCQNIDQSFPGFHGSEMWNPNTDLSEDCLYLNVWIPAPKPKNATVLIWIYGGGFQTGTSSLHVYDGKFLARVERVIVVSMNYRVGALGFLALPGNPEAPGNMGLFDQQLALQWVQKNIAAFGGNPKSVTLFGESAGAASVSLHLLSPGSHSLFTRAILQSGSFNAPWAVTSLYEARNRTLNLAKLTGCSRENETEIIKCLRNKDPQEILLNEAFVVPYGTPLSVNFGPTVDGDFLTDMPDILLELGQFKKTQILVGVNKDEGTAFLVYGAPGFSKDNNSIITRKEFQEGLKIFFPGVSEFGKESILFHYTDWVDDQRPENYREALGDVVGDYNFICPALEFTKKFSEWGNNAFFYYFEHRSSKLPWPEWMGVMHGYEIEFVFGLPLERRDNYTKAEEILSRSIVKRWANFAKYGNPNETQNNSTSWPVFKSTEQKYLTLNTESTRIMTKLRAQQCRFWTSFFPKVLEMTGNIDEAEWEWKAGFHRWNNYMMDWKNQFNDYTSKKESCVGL

`C=CC1C[N+]2(Cc3cccc(F)c3F)CCC1C[C@H]2[C@H](O)c1ccnc2ccccc12` (some centres unmarked) [CD 2,3F]: the Ki in assay [1] turned out to be 19 ± 1 µM; in assay [2] (setting [3]), 0.75 ± 0.03 µM. For the same molecule, in assay [2], the “SI, selective index Ki(AChE)/Ki(BChE)” value came to 25.
With `C=CC1C[N+]2(Cc3ccc(F)cc3F)CCC1C[C@H]2[C@H](O)c1ccnc2ccccc12` (some centres unmarked) [CD 2,4F], the Ki was 6.4 ± 0.3 µM in assay [1] and 6.1 ± 0.5 µM in assay [2] (setting [3]). The “SI, selective index Ki(AChE)/Ki(BChE)” value in assay [2] is recorded as 1.1.
Turning to `C=CC1C[N+]2(Cc3c(F)cccc3F)CCC1C[C@H]2[C@H](O)c1ccnc2ccccc12` (some centres unmarked) [CD 2,6F], the inhibition constant Ki in assay [1] came to 7.7 ± 0.5 µM; in assay [2] (setting [3]), 9.9 ± 0.4 µM. Further, the “SI, selective index Ki(AChE)/Ki(BChE)” value in assay [2] came to 0.77.
For `C=CC1C[N+]2(Cc3c(F)cccc3Cl)CCC1C[C@H]2[C@H](O)c1ccnc2ccccc12` (some centres unmarked) [CD 2Cl-6F, N-(2-chloro-6-fluorobenzyl)cinchonidinium bromide] the same measures were 9.9 ± 0.8 µM, 5 ± 0.3 µM and 1.9.
In the case of `C=CC1C[N+]2(Cc3ccc(Br)cc3F)CCC1C[C@H]2[C@H](O)c1ccnc2ccccc12` (some centres unmarked) [CD 2F-4Br, N-(2-fluoro-4-bromobenzyl)cinchonidinium bromide], the Ki in assay [1] worked out at 7.2 ± 0.4 µM; in assay [2] (setting [3]), 0.68 ± 0.05 µM. Moreover, the “SI, selective index Ki(AChE)/Ki(BChE)” value in assay [2] was determined as 10.
For `C=CC1C[N+]2(Cc3c(F)cccc3C(F)(F)F)CCC1C[C@H]2[C@H](O)c1ccnc2ccccc12` (some centres unmarked) [CD 2F-6CF3, N-(2-fluoro-6-trifluoromethylbenzyl)cinchonidinium bromide] the same measures were 35 ± 4 µM, 5.7 ± 0.6 µM and 6.1.
On to `C=CC1C[N+]2(Cc3ccccc3F)CCC1C[C@H]2[C@H](O)c1ccnc2ccccc12` (some centres unmarked) [CD 2F], for which the inhibitory constant (Ki) in assay [1] is 33 ± 1 µM; in assay [2] (setting [3]), 0.82 ± 0.03 µM. For the same molecule, in assay [2], the “SI, selective index Ki(AChE)/Ki(BChE)” value was found to be 40.
The corresponding values for `C=CC1C[N+]2(Cc3ccc(F)c(F)c3)CCC1C[C@H]2[C@H](O)c1ccnc2ccccc12` (some centres unmarked) [CD 3,4F] are 13 ± 1 µM, 1.3 ± 0.1 µM and 10.
In the case of `C=CC1C[N+]2(Cc3cc(F)cc(F)c3)CCC1C[C@H]2[C@H](O)c1ccnc2ccccc12` (some centres unmarked) [CD 3,5F], the inhibition constant (Ki) is 10 ± 1 µM in assay [1], ~0.076 µM in assay [2] (stated in text as around) and 0.081 ± 0.01 µM in assay [2] (setting [3]). In addition, the “Stereoselectivity Ki(CN/CD) BChE” value in assay [2] (ratio > 1: higher affinity toward CD over CN pseudo-enantiomer) is 78. For the same molecule, in assay [2], the “SI, selective index Ki(AChE)/Ki(BChE)” value is 123.
`C=CC1C[N+]2(Cc3cccc(C(F)(F)F)c3)CCC1C[C@H]2[C@H](O)c1ccnc2ccccc12` (some centres unmarked) [CD 3CF3]: the Ki was 34 ± 1 µM in assay [1] and 2.4 ± 0.1 µM in assay [2] (setting [3]). In addition, the “SI, selective index Ki(AChE)/Ki(BChE)” value in assay [2] turned out to be 14.
Turning to `C=CC1C[N+]2(Cc3cccc(F)c3)CCC1C[C@H]2[C@H](O)c1ccnc2ccccc12` (some centres unmarked) [CD 3F, N-(meta-fluorobenzyl)cinchonidinium bromide], the Ki in assay [1] was 40 ± 2 µM; in assay [2] (stated in text as around), ~0.076 µM; in assay [2] (setting [3]), 0.075 ± 0.005 µM. The “SI, selective index Ki(AChE)/Ki(BChE)” value in assay [2] worked out at 533.
For `C=CC1C[N+]2(Cc3cccc(OC(F)(F)F)c3)CCC1C[C@H]2[C@H](O)c1ccnc2ccccc12` (some centres unmarked) [CD 3OCF3], the inhibition constant Ki amounted to 8.2 ± 1.1 µM in assay [1] and 7.4 ± 0.4 µM in assay [2] (setting [3]). The “SI, selective index Ki(AChE)/Ki(BChE)” value in assay [2] was 1.1.
Take `C=CC1C[N+]2(Cc3ccc(C(F)(F)F)cc3)CCC1C[C@H]2[C@H](O)c1ccnc2ccccc12` (some centres unmarked) [CD 4CF3]: the Ki came to 21 ± 1 µM in assay [1] and 2 ± 0.1 µM in assay [2] (setting [3]). In assay [2], the “SI, selective index Ki(AChE)/Ki(BChE)” value is 11.
For `C=CC1C[N+]2(Cc3ccc(F)cc3)CCC1C[C@H]2[C@H](O)c1ccnc2ccccc12` (some centres unmarked) [CD 4F] the same measures were 69 ± 3 µM, 1.5 ± 0.1 µM and 46.
For `C=CC1C[N+]2(Cc3ccc(OC(F)(F)F)cc3)CCC1C[C@H]2[C@H](O)c1ccnc2ccccc12` (some centres unmarked) [CD 4OCF3] the same measures were 7.3 ± 0.5 µM, 7.6 ± 0.5 µM and 0.96.
As for `C=CC1C[N+]2(Cc3ccccc3)CCC1C[C@H]2[C@H](O)c1ccnc2ccccc12` (some centres unmarked) [CD Bzl], the Ki in assay [1] is 15 ± 2 µM; in assay [2] (setting [3]), 0.075 ± 0.007 µM. Also, the “SI, selective index Ki(AChE)/Ki(BChE)” value in assay [2] was found to be 200.
Regarding `C=CC1C[N+]2(Cc3cccc(F)c3F)CCC1C[C@@H]2[C@@H](O)c1ccnc2ccccc12` (some centres unmarked) [CN 2,3F, N-(2,3-difluorobenzyl)cinchoninium bromide], the inhibition constant Ki in assay [1] came out at 46 ± 3 µM; in assay [2] (setting [3]), 9.6 ± 0.4 µM. Moreover, the “SI, selective index Ki(AChE)/Ki(BChE)” value in assay [2] is listed as 4.8.
For `C=CC1C[N+]2(Cc3ccc(F)cc3F)CCC1C[C@@H]2[C@@H](O)c1ccnc2ccccc12` (some centres unmarked) [CN 2,4F, N-(2,4-difluorobenzyl)cinchoninium bromide] the same measures were 27 ± 1 µM, 6 ± 0.2 µM and 4.5.
As to `C=CC1C[N+]2(Cc3c(F)cccc3F)CCC1C[C@@H]2[C@@H](O)c1ccnc2ccccc12` (some centres unmarked) [CN 2,6F, N-(2,6-difluorobenzyl)cinchoninium bromide], the figures for the Ki in assay [1] and in assay [2] (setting [3]) were 30 ± 2 µM and 5.2 ± 0.2 µM, respectively. Further, the “SI, selective index Ki(AChE)/Ki(BChE)” value in assay [2] is listed as 5.8.
Turning to `C=CC1C[N+]2(Cc3c(F)cccc3Cl)CCC1C[C@@H]2[C@@H](O)c1ccnc2ccccc12` (some centres unmarked) [CN 2Cl-6F, N-(2-chloro-6-fluorobenzyl)cinchoninium bromide], the results for the Ki in assay [1] and in assay [2] (setting [3]) were 17 ± 1 µM and 1.2 µM, respectively. In addition, the “SI, selective index Ki(AChE)/Ki(BChE)” value in assay [2] is on record as 14.
As for `C=CC1C[N+]2(Cc3ccc(Br)cc3F)CCC1C[C@@H]2[C@@H](O)c1ccnc2ccccc12` (some centres unmarked) [CN 2F-4Br, N-(2-fluoro-4-bromobenzyl)cinchoninium bromide], the Ki in assay [1] came out at 16 ± 1 µM; in assay [2] (setting [3]), 5.5 ± 0.3 µM. Moreover, the “SI, selective index Ki(AChE)/Ki(BChE)” value in assay [2] is 2.9.
With `C=CC1C[N+]2(Cc3c(F)cccc3C(F)(F)F)CCC1C[C@@H]2[C@@H](O)c1ccnc2ccccc12` (some centres unmarked) [CN 2F-6CF3, N-(2-fluoro-6-trifluoromethylbenzyl)cinchoninium bromide], the Ki in assay [1] turned out to be 61 ± 2 µM; in assay [2] (setting [3]), 7.7 ± 0.4 µM. Further, in assay [2], the “SI, selective index Ki(AChE)/Ki(BChE)” value worked out at 7.9.
Regarding `C=CC1C[N+]2(Cc3ccccc3F)CCC1C[C@@H]2[C@@H](O)c1ccnc2ccccc12` (some centres unmarked) [CN 2F], the Ki in assay [1] was found to be 80 ± 2 µM; in assay [2] (setting [3]), 2.4 ± 0.1 µM. Besides, the “SI, selective index Ki(AChE)/Ki(BChE)” value in assay [2] is on record as 33.
For `C=CC1C[N+]2(Cc3ccc(F)c(F)c3)CCC1C[C@@H]2[C@@H](O)c1ccnc2ccccc12` (some centres unmarked) [CN 3,4F], the Ki in assay [1] was 14 ± 0.2 µM; in assay [2] (setting [3]), 6.1 ± 0.2 µM. In addition, the “SI, selective index Ki(AChE)/Ki(BChE)” value in assay [2] turned out to be 2.3.
For `C=CC1C[N+]2(Cc3cc(F)cc(F)c3)CCC1C[C@@H]2[C@@H](O)c1ccnc2ccccc12` (some centres unmarked) [CN 3,5F] the same measures were 34 ± 3 µM, 6.3 ± 0.2 µM and 5.4.
The corresponding values for `C=CC1C[N+]2(Cc3cccc(C(F)(F)F)c3)CCC1C[C@@H]2[C@@H](O)c1ccnc2ccccc12` (some centres unmarked) [CN 3CF3] are 59 ± 2 µM, 4.4 ± 0.2 µM and 13.
For `CC[C@H]1CN2CC[C@H]1C[C@@H]2[C@@H](O)c1ccnc2ccccc12` [DHCN, 10,11-dihydrocinchonine], the “times higher affinity of BChE for DHCN over DHCD” value in assay [2] (unsubstituted 10,11-dihydro compounds) was 16. This molecule also yielded a Ki in assay [2] (setting [3]) of 1.2 ± 0.1 µM.

Values taken from paper PMC9610298, “Synthesis, Biological Evaluation and Machine Learning Prediction Model for Fluorinated Cinchona Alkaloid-Based Derivatives as Cholinesterase Inhibitors” (Pharmaceuticals, 2022).
